Test results as given in US9073820B2, “Pharmaceutical compositions comprising napthamides” (OREGON HEALTH & SCIENCE UNIVERSITY, priority 2011, dated 2015).
Where two headings read alike, the source gives them in different places.

Legend:
[1] = system: MCF-7 (human breast cancer cells); test: MTT cell growth inhibition, 72 h, MCF-7; assay type: cell-based; conditions: MCF7, 72 h, read-out: MCF-7 (GI50)
Method: (§1) A549 (human lung cancer cells), MCF-7 (human breast cancer cells), MDA-MB-231 (human breast cancer cells) and MDA-MB-468 cells (human breast cancer cells) were maintained in Dulbecco's modified Eagle medium (DMEM, Invitrogen, Carlsbad, Calif.) supplemented with 10% (v/v) fetal calf serum (Sigma, St. Louis, Mo.), 10 μg/mL penicillin and 10 μg/mL streptomycin (Invitrogen, Carlsbad, Calif.) at 37° C. under 5% CO2. On the day of experiment, different concentrations of the drugs (final concentration 10^−8-10^−4 M) in duplicates were added to the cells and the cells were further incubated for 72 h. Then, the number of live cells was quantified by 3-(4,5-dimethyl-2-thiazolyl)-2,5-diphenyl-2H-tetrazolium bromide (MTT reagent, Sigma, St. Louis, Mo.).
(§2) The amount of reduced MTT formazan generated by live cells was determined by its absorbance at 570 nm after subtracting the background absorbance at 690 nm. The percent of cell growth was expressed as (A570(treated)−A570(initial))/(A570(vehicle treated)−A570(initial))*100, where A570(initial) represents initial cell population when drugs are added. The GI50 were derived from non-linear regression analysis of the dose-response curve using Prism 4.0 (GraphPad). […] Data were presented as mean±SD of at least two measurements in duplicates unless noted.

KIX-KID = target: T1, KIX-KID (Homo sapiens, UniProt Q92793); test: KIX-KID inhibition, split Renilla luciferase complementation (RLucC-KIX and KID-RLucN); assay type: binding; conditions: 4° C., 24 h
T1 construct: made in house
Method: RLucC-KIX (15 ng) and KID-RLucN-containing cell lysates (0.5 mg) were mixed together in Renilla luciferase lysis buffer (Promega, Madison, Wis.) in the presence of different concentrations of compounds. The final volume of the incubation mixture is 30 μL. The mixture was incubated at 4° C. for 24 h. Then Renilla luciferase activity was measured by combining 5 μL of incubation mixture with 30 μL of coelenterazine solution in PBS (pH 7.4, 10 μg/mL).

[2] = system: MDA-MB-231 (human breast cancer cells); test: MTT cell growth inhibition, 72 h, MDA-MB-231; assay type: cell-based; conditions: MDA-MB-231, 72 h, read-out: MDA-MB-231 (GI50)
Method: as §1, §2

[3] = system: A549 (human lung cancer cells); test: MTT cell growth inhibition, 72 h, A549; assay type: cell-based; conditions: A549, 72 h, read-out: A549 (GI50)
Method: as §1, §2

[4] = Pharmacokinetics of Compound 4 in mice (IV and PO); assay type: in vivo, BALB/c nude female mice
Method: The pharmacokinetics of Compound 4 was assessed in BALB/c nude female mice. Doses were 2 mg/kg administered intravenously (IV) and 20 mg/kg administered orally (PO). The intravenous formulation was administered in 1% N-Methyl-2-pyrrolidone (NMP) in water and was a clear solution. The per os solution was in 1.3% NMP+5% Tween-20® in a clear solution.

[5] = Maximum tolerated dose of Compound 4 (body weight); assay type: in vivo
Method: The maximum tolerated dose (MTD) of compound 4 was evaluated in nude mice. In this study 4 groups were established, each with five mice per group. The compound was formulated in a suspension of 5% Tween-80/H2O. Compound 4 was administered orally at dose levels of 120, 60, and 30 mg/kg as QD for five days. The body weight was measured daily for a total of 11 days.

[6] = system: MDA-MB-468 cells (human breast cancer cells); test: MTT cell growth inhibition, 72 h, MDA-MB-468; assay type: cell-based; conditions: MDA-MB-468, 72 h, read-out: MDA-MB-468 (GI50)
Method: as §1, §2

[7] = female, BALB/c nude, mouse, plasma, intravenous, 2 mg/kg, 2 mg/kg IV, G1, read-out: Plasma concentration G1
[8] = female, BALB/c nude, mouse, plasma, intravenous, 2 mg/kg, 2 mg/kg IV, G2, read-out: Plasma concentration G2
[9] = female, BALB/c nude, mouse, plasma, intravenous, 2 mg/kg, 2 mg/kg IV, G3, read-out: Plasma concentration G3
[10] = female, BALB/c nude, mouse, plasma, intravenous, 2 mg/kg, 2 mg/kg IV, mean, read-out: Plasma concentration Mean IV
[11] = female, BALB/c nude, mouse, plasma, oral, 20 mg/kg, 20 mg/kg PO, G4, read-out: Plasma concentration G4
[12] = female, BALB/c nude, mouse, plasma, oral, 20 mg/kg, 20 mg/kg PO, G5, read-out: Plasma concentration G5
[13] = female, BALB/c nude, mouse, plasma, oral, 20 mg/kg, 20 mg/kg PO, G6, read-out: Plasma concentration G6
[14] = female, BALB/c nude, mouse, plasma, oral, 20 mg/kg, 20 mg/kg PO, mean, read-out: Plasma concentration Mean PO
[15] = female, BALB/c nude, mouse, plasma, 2 mg/kg IV
[16] = female, BALB/c nude, mouse, plasma, 20 mg/kg PO

T1 sequence (Q92793 587-666 limits assumed): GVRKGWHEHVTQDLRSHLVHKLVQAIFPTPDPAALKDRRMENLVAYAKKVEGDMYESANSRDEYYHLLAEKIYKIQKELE

## NCCCOc1cc2ccccc2cc1C(=O)NCCCOc1cc2ccccc2cc1C(=O)Nc1ccc(Cl)cc1O [Compound 4]
[1]
  GI50: 140 ± 29 nM
KIX-KID
  IC50: 2540 ± 280 nM
[2]
  GI50: 230 ± 6 nM
[3]
  GI50: 300 nM
[4]; 2 mg/kg IV
  CI: 12.7 mL/min/kg
[4]; [7]
  concentration at 0.083 hr: 1610 ng/mL
  concentration at 0.25 hr: 1140 ng/mL
  concentration at 0.5 hr: 1130 ng/mL
  concentration at 1 hr: 528 ng/mL
  concentration at 2 hr: 275 ng/mL
  concentration at 4 hr: 59.9 ng/mL
  concentration at 8 hr: 30.2 ng/mL
  concentration at 24 hr: 15.3 ng/mL
[4]; [8]
  concentration at 0.083 hr: 1980 ng/mL
  concentration at 0.25 hr: 1900 ng/mL
  concentration at 0.5 hr: 966 ng/mL
  concentration at 1 hr: 378 ng/mL
  concentration at 2 hr: 178 ng/mL
  concentration at 4 hr: 71 ng/mL
  concentration at 8 hr: 58.7 ng/mL
  concentration at 24 hr: 16.4 ng/mL
[4]; [9]
  concentration at 0.083 hr: 1540 ng/mL
  concentration at 0.25 hr: 1610 ng/mL
  concentration at 0.5 hr: 1170 ng/mL
  concentration at 1 hr: 419 ng/mL
  concentration at 2 hr: 105 ng/mL
  concentration at 4 hr: 58.1 ng/mL
  concentration at 8 hr: 56.6 ng/mL
  concentration at 24 hr: 13.3 ng/mL
[4]; [10]
  concentration at 0.083 hr: 1710 ng/mL
  concentration at 0.25 hr: 1550 ng/mL
  concentration at 0.5 hr: 1090 ng/mL
  concentration at 1 hr: 442 ng/mL
  concentration at 2 hr: 186 ng/mL
  concentration at 4 hr: 63 ng/mL
  concentration at 8 hr: 48.5 ng/mL
  concentration at 24 hr: 15 ng/mL
[4]; [11]
  concentration at 0.25 hr: 75.5 ng/mL
  concentration at 0.5 hr: 92 ng/mL
  concentration at 1 hr: 402 ng/mL
  concentration at 2 hr: 353 ng/mL
  concentration at 4 hr: 128 ng/mL
  concentration at 8 hr: 45.8 ng/mL
  concentration at 12 hr: 46 ng/mL
  concentration at 24 hr: 7.2 ng/mL
[4]; [12]
  concentration at 0.25 hr: 92.7 ng/mL
  concentration at 0.5 hr: 82.4 ng/mL
  concentration at 1 hr: 465 ng/mL
  concentration at 2 hr: 75 ng/mL
  concentration at 4 hr: 65.9 ng/mL
  concentration at 8 hr: 30.1 ng/mL
  concentration at 12 hr: 47.6 ng/mL
  concentration at 24 hr: 12.9 ng/mL
[4]; [13]
  concentration at 0.25 hr: 101 ng/mL
  concentration at 0.5 hr: 166 ng/mL
  concentration at 1 hr: 139 ng/mL
  concentration at 2 hr: 269 ng/mL
  concentration at 4 hr: 118 ng/mL
  concentration at 8 hr: 41.7 ng/mL
  concentration at 12 hr: 48.2 ng/mL
  concentration at 24 hr: 34.1 ng/mL
[4]; [14]
  concentration at 0.25 hr: 89.7 ng/mL
  concentration at 0.5 hr: 114 ng/mL
  concentration at 1 hr: 335 ng/mL
  concentration at 2 hr: 232 ng/mL
  concentration at 4 hr: 104 ng/mL
  concentration at 8 hr: 39.2 ng/mL
  concentration at 12 hr: 47.3 ng/mL
  concentration at 24 hr: 18.1 ng/mL
[4]; [15]
  AUC(0-inf): 2630 ng·h/mL
  AUC(0-t): 2420 ng·h/mL
  half-life: 9.6 h
[4]; female, BALB/c nude, mouse, plasma, 2 mg/kg IV, read-out: Vss
  Vd: 4.8 L/kg
[4]; [16]
  AUC(0-inf): 1860 ng·h/mL
  AUC(0-t): 1620 ng·h/mL
  Cmax: 335 ng/mL
  Tmax: 1 h
  half-life: 9.1 h
[4]; female, BALB/c nude, mouse, plasma, 20 mg/kg PO vs 2 mg/kg IV
  bioavailability: 7.1%
[5]; PO 120, 60, 30 mg/kg QD for five days, body weight 11 days
  effect on mouse body weight: no different from vehicle
[5]; doses as high as 120 mg/kg per os, QD for five days
  tolerability: well-tolerated
[6]
  GI50: 210 ± 71 nM
